Measured values reported in patent US9334269B2, “Carboxamides as inhibitors of voltage-gated sodium channels” (AMGEN INC., priority 2010, dated 2016).

Target: T1, human Nav1.7 (hNav1.7) (Homo sapiens, UniProt Q15858)
T1 construct: expressed in transfected cells
Test: hNav1.7 whole-cell patch-clamp electrophysiology (automated PatchXpress 7000A or manual) in stably expressing 293 cells
Type: cell-based
Procedure, shortened: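 Stably transfected 293 cells lacking endogenous sodium channels; peak current evoked by depolarizing pulses during increasing compound concentrations, automated at ~20% fractional inactivation, or manually at −140 mV (resting) and ~20% inactivation. Block taken at steady state, corrected for rundown; IC50 by Hill fit.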

[1] = human Nav1.7 stably expressed in 293 cells, whole-cell patch clamp, average IC50 from Hill fit

T1 sequence (Q15858 whole entry): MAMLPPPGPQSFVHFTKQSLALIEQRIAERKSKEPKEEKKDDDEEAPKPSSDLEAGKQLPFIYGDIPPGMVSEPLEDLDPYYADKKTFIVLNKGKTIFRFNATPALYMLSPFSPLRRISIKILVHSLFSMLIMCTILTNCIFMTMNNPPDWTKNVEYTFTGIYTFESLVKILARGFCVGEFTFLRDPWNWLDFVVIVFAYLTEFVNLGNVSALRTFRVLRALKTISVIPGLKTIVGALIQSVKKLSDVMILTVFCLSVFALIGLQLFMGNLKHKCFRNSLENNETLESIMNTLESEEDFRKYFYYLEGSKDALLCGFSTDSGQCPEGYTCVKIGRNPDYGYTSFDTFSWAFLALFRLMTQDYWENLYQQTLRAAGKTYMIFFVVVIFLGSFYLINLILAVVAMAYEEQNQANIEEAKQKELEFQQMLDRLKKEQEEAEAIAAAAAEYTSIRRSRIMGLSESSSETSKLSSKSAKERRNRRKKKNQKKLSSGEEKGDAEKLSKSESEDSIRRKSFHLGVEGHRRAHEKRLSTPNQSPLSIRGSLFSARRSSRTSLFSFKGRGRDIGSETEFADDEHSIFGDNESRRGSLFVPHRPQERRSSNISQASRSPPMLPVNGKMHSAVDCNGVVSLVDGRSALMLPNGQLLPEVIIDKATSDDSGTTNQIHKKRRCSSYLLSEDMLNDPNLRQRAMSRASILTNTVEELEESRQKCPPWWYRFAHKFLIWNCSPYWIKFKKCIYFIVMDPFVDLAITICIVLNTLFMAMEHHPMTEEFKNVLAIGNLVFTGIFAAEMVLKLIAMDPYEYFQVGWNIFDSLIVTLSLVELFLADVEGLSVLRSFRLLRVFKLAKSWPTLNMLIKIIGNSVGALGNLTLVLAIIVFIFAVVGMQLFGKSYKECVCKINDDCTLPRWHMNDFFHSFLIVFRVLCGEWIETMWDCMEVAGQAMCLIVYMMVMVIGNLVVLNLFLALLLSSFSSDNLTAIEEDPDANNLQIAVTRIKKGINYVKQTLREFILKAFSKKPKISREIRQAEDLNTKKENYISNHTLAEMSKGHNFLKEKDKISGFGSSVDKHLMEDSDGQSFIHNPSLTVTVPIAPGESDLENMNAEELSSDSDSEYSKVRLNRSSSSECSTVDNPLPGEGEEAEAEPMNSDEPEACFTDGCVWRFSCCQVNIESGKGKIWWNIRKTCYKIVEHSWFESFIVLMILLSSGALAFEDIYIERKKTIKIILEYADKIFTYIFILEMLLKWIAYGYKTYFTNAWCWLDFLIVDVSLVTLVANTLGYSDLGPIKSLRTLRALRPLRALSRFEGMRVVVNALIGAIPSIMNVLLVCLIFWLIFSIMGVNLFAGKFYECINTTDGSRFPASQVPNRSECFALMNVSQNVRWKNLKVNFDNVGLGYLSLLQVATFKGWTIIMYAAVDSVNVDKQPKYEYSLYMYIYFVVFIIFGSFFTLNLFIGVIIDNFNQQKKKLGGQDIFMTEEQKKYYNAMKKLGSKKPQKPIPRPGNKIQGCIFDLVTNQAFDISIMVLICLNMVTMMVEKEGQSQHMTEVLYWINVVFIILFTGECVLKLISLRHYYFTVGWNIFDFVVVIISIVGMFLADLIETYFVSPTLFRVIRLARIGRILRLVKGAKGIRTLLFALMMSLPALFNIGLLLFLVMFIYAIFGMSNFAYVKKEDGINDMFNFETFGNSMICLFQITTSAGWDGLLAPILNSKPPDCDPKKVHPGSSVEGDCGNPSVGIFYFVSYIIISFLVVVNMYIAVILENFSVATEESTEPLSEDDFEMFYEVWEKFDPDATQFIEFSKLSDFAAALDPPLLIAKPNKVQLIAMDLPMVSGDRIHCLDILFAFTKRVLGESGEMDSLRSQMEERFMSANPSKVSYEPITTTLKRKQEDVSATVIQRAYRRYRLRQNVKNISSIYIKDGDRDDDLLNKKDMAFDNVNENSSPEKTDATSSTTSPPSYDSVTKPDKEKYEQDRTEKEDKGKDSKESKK

IC50 (average IC50, human Nav1.7) [µM]	Structure (SMILES)	also measured
2.59	CNC(=O)c1cccc(Nc2ncnc(N3CCC(c4ccc(OC(F)(F)F)cc4)CC3)n2)c1 [Example 135]	
1.87	CNC(=O)c1cccc(Nc2ncnc(N3CCN(c4ccccc4)CC3)n2)c1 [Example 115]	
5.6	CNC(=O)c1cccc(Nc2ncnc(N3CC(Oc4ccccc4F)C3)n2)c1 [Example 192]	
1.43	CNC(=O)c1cccc(Nc2ncnc(N3CC=C(c4ccc(C#N)cc4)CC3)n2)c1 [Example 99]	
0.44	CNC(=O)c1cccc(Nc2ncnc(N3CC(Oc4ccc(C)cc4Cl)C3)n2)c1 [Example 32]	
3.67	CNC(=O)c1c(F)ccc(Nc2ncnc(N3CC(COc4ccc(Cl)cc4)C3)n2)c1F [Example 161]	
1.83	CNC(=O)c1cccc(Nc2ncnc(N3CCN(c4cccc(C)c4)CC3)n2)c1 [Example 114]	
5.19	CNC(=O)c1c(F)ccc(Nc2ncnc(N3CC(Oc4ccc(Cl)cc4)C3)n2)c1F [Example 183]	
4.25	CNC(=O)c1cccc(Nc2ncnc(NCCCOc3ccc(C(F)(F)F)cc3)n2)c1 [Example 169]	
7.03	NC(=O)c1cccc(Nc2ncnc(N3CCC(OCc4ccc(OC(F)(F)F)cc4)CC3)n2)c1 [Example 200]	
0.61	CNC(=O)c1cccc(Nc2ncnc(N3CCN(c4cccc(OC)c4)CC3)n2)c1 [Example 44]	
17.6	CNC(=O)c1cccc(Nc2ncnc(NCCCOc3cccc(F)c3)n2)c1 [Example 260]	
13.1	CNC(=O)c1cccc(Nc2ncnc(N3CCC(Sc4ccc(C)cc4)CC3)n2)c1 [Example 250]	
0.52	CNC(=O)c1cccc(Nc2ncnc(N3CCc4cc(OCC(F)(F)F)ccc4C3)n2)c1 [Example 41]	
2.55	CNC(=O)c1cccc(Nc2ncnc(N3CC(COc4ccc(Cl)cc4Cl)C3)n2)c1 [Example 132]	
0.39	CNC(=O)c1cccc(Nc2ncnc(N3CCC(c4csc(-c5ccccc5)n4)CC3)n2)c1 [Example 26]	
2.73	CNC(=O)c1cccc(Nc2ncnc(N3CCc4c(cccc4OCC(F)(F)F)C3)n2)c1 [Example 137]	
4.78	CNC(=O)c1cccc(Nc2ncnc(N3CCN(c4ccccc4C(F)(F)F)CC3)n2)c1 [Example 178]	

More lines, now with the values behind:

Structure (SMILES)	IC50 (average IC50, human Nav1.7) [µM]	also measured
CNC(=O)c1cccc(Nc2nccc(N3CC(Oc4ccc(C(F)(F)F)cc4)C3)n2)c1 [Example C, N-methyl-3-((4-(3-(4-(trifluoromethyl)phenoxy)-1-azetidinyl)-2-pyrimidinyl)amino)benzamide]		IC50 [1]: 1.55 µM
CNC(=O)c1cc(Nc2ncnc(NCCCOc3ccc(OC(F)(F)F)cc3)n2)ccc1F [Example 64]	0.83	
CNC(=O)c1cccc(Nc2ncnc(N3CCC(Cc4ccc(F)cc4)CC3)n2)c1 [Example 196]	6.4	
CNC(=O)c1cccc(Nc2ncnc(N3CCc4cc(OC(F)(F)F)ccc4C3)n2)c1 [Example 110]	1.67	
CNC(=O)c1cccc(Nc2nc(N3CC(Oc4ccc(Cl)cc4F)C3)ncc2F)c1 [Example AK, 3-((2-(3-(4-chloro-2-fluorophenoxy)-1-azetidinyl)-5-fluoro-4-pyrimidinyl)amino)-N-methylbenzamide]		IC50 [1]: 0.43 µM
Cc1ccc(N2CCN(c3ncnc(Nc4ccc(Cl)c(C(N)=O)c4)n3)CC2)cc1C [Example 227]	9.36	
CNC(=O)c1cccc(Nc2ncnc(N3CC(Oc4cc(F)ccc4F)C3)n2)c1 [Example 177]	4.72	
CNC(=O)c1cccc(Nc2ncnc(NCc3cn4cc(C)ccc4n3)n2)c1 [Example 286]		IC50 (average IC50): > 30 µM
C#Cc1cccc(OC2CN(c3ncnc(Nc4cccc(C(=O)NC)c4)n3)C2)c1 [Example 78]	0.99	
CNC(=O)c1cccc(Nc2ncnc(N3CC(Oc4cccc(C(F)(F)F)c4)C3)n2)c1 [Example 62]	0.82	
CNC(=O)c1cccc(Nc2ncnc(NCCCc3ccc(Cl)cc3)n2)c1 [Example 232]	9.84	
COCCNC(=O)c1cccc(Nc2ncnc(N3CC(Oc4ccc(Cl)cc4)C3)n2)c1 [Example 28]	0.4	
CNC(=O)c1cccc(Nc2ccnc(N3CC(Oc4ccc(Cl)cc4F)C3)c2)c1 [Example AA, 3-((2-(3-(4-chloro-2-fluorophenoxy)-1-azetidinyl)-4-pyridinyl)amino)-N-methylbenzamide]		IC50 [1]: 7.15 µM
CNC(=O)c1cccc(Nc2nccc(N3CC(Oc4ccc(F)cc4C)C3)n2)c1 [Example J, 3-((4-(3-(4-fluoro-2-methylphenoxy)-1-azetidinyl)-2-pyrimidinyl)amino)-N-methylbenzamide]		IC50 [1]: 0.08 µM
CNC(=O)c1cccc(Nc2ncnc(N3CCC(Oc4cccc(Cl)c4)CC3)n2)c1 [Example 122]	2.1	
CNC(=O)c1cccc(Nc2nccc(N3CC(Oc4ccc(F)c(F)c4)C3)n2)c1 [Example E, 3-((4-(3-(3,4-difluorophenoxy)-1-azetidinyl)-2-pyrimidinyl)amino)-N-methylbenzamide]		IC50 [1]: 1.6 µM

Structure (SMILES)	IC50 (average IC50, human Nav1.7) [µM]	also measured
CNC(=O)c1cccc(Nc2ncnc(N3CC(Oc4ccc(Cl)c(Cl)c4)C3)n2)c1 [Example 39]	0.5	
CNC(=O)c1cccc(Nc2ncnc(N3CCCC(Oc4ccccc4Cl)C3)n2)c1 (stereo not shown) [Example 212]	8.31	
CNC(=O)c1cccc(Nc2ncnc(N3CCC(c4nc(-c5ccccc5)c(C)s4)CC3)n2)c1 [Example 168]	4.22	
CNC(=O)c1cccc(Nc2nccc(N3CC(Oc4ccc(F)cc4F)C3)n2)c1 [Example H, 3-((4-(3-(2,4-difluorophenoxy)-1-azetidinyl)-2-pyrimidinyl)amino)-N-methylbenzamide]		IC50 [1]: 2.16 µM
CNC(=O)c1ccc(C)c(Nc2ncnc(N3CC(Oc4ccc(F)cc4)C3)n2)c1 [Example 160]	3.65	
CNC(=O)c1cccc(Nc2nccc(N3CC(Oc4ccc(OC)cc4)C3)n2)c1 [Example 31]	0.43	
CNC(=O)c1cccc(Nc2ncnc(NCCCOc3ccc(Cl)cc3)n2)c1 [Example 152]	3.1	
CNC(=O)c1cccc(Nc2ncnc(N3CCc4ccc(Cl)cc4C3)n2)c1 [Example 279]		IC50 (average IC50): 26.4 µM
CNC(=O)c1cccc(Nc2ncnc(N3CCC(C(=O)c4ccc(Cl)cc4)CC3)n2)c1 [Example 36]	0.49	
CNC(=O)c1cccc(Nc2ncnc(N3CC(Oc4ccc(Cl)cc4F)C3)n2)c1 [Example 21]	0.33	
CNC(=O)c1cccc(Nc2nccc(N3CC(Oc4ccc(Cl)cc4Cl)C3)n2)c1 [Example AAA, 3-(4-(3-(2,4-dichlorophenoxy)azetidin-1-yl)pyrimidin-2-ylamino)-N-methylbenzamide]		IC50 [1]: 0.52 µM
CNC(=O)c1cccc(Nc2ncnc(N3CC(Oc4ccccc4C#N)C3)n2)c1 [Example 297]		IC50 (average IC50): > 30 µM
CNC(=O)c1cccc(Nc2ncnc(N3CCc4cc(Cl)ccc4C3)n2)c1 [Example 130]	2.44	
CNC(=O)c1cc(F)cc(Nc2ncnc(NCCCOc3ccc(OC(F)(F)F)cc3)n2)c1 [Example 282]		IC50 (average IC50): > 30 µM
CNC(=O)c1cccc(Nc2ncnc(N3CC=C(c4nc(-c5ccccc5)cs4)CC3)n2)c1 [Example 52]	0.66	
